# What was measured:
# [1] = biological target: T1, CDK2 (Homo sapiens, UniProt P24941); assay: CDK protein degradation activity (Western blotting), CDK2; type: cell-based; conditions: MDA-MB-231 cells, 16 hours, Western blot
# T1 construct: endogenous in cells; host or cells: MDA-MB-231
# How it was run: (§1)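 Seed MDA-MB-231 cells; next day add compound to 100 nM, 1 μM or 10 μM final, or DMSO. After 16 h, harvest and lyse in Triton X-100 buffer, run SDS-PAGE, probe for CDK2, CDK9 and tubulin.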
# [2] = biological target: T2, CDK9 (Homo sapiens, UniProt P50750); assay: CDK protein degradation activity (Western blotting), CDK9; type: cell-based; conditions: MDA-MB-231 cells, 16 hours, Western blot
# T2 construct: endogenous in cells; host or cells: MDA-MB-231
# How it was run: as §1
# T2 sequence (P50750 whole entry): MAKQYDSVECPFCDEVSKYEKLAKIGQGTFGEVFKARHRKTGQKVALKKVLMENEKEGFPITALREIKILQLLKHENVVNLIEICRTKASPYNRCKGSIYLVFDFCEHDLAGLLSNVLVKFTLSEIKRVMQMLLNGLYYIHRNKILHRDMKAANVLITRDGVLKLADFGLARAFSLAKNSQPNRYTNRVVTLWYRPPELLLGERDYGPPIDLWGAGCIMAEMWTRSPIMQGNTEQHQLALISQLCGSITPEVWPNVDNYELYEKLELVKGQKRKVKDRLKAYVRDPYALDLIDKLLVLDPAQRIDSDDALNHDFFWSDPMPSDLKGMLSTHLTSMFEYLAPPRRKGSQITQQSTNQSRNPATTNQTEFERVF
Enzyme degradation CDK2 (% remaining) @ 0.1 μM [1],Enzyme degradation CDK2 (% remaining) @ 1 μM [1],Enzyme degradation CDK2 (% remaining) @ 10 μM [1],Enzyme degradation CDK9 (% remaining) @ 0.1 μM [2],Enzyme degradation CDK9 (% remaining) @ 1 μM [2],Enzyme degradation CDK9 (% remaining) @ 10 μM [2],SMILES
40/40/40%,40/40/40%,40/40/40%,0/0/0%,0/0/0%,0/0/0%,"Cc1cccc(C(=O)NC2CC(n3cnc4c(Nc5ccc(N6CCN(CC7CCN(C(=O)C8CCN(c9ccc%10c(c9)C(=O)N([C@H]9CCC(=O)NC9=O)C%10=O)CC8)CC7)CC6)cc5)ncnc43)C2)n1 (stereo partly drawn) [Compound 379, N-((1s,3s)-3-(6-((4-(4-((1-(1-(2-(2,6-dioxopiperidin-3-yl)-1,3-dioxoisoindolin-5-yl)piperidin-4-carbonyl)piperidin-4-yl)methyl)piperazin-1-yl)phenyl)amino)-9H-purin-9-yl)cyclobutyl)-6-methylpicolinamide]"
40%,40%,30%,0/0/0%,0/0/0%,0/0/0%,"Cc1cccc(C(=O)NC2CC(n3cnc4c(Nc5ccc(N6CCN(CCC7CCN(c8ccc9c(c8)C(=O)N([C@H]8CCC(=O)NC8=O)C9=O)CC7)CC6)cc5)ncnc43)C2)n1 (stereo partly drawn) [Compound 380, N-((1s,3s)-3-(6-((4-(4-(2-(1-(2-(2,6-dioxopiperidin-3-yl)-1,3-dioxoisoindolin-5-yl)piperidin-4-yl)ethyl)piperazin-1-yl)phenyl)amino)-9H-purin-9-yl)cyclobutyl)-6-methylpicolinamide]"
30%,20%,20%,0/0/0%,0/0/0%,0/0/0%,"Cc1cccc(C(=O)NC2CC(n3cnc4c(Nc5ccc(N6CCN(CCC7CCN(c8cc9c(cc8F)C(=O)N([C@H]8CCC(=O)NC8=O)C9=O)CC7)CC6)cc5)ncnc43)C2)n1 (stereo partly drawn) [Compound 381, N-((1s,3s)-3-(6-((4-(4-(2-(1-(2-(2,6-dioxopiperidin-3-yl)-6-fluoro-1,3-dioxoisoindolin-5-yl)piperidin-4-yl)ethyl)piperazin-1-yl)phenyl)amino)-9H-purin-9-yl)cyclobutyl)-6-methylpicolinamide]"
30%,30%,50%,0/0/0%,0/0/0%,0/0/0%,"Cc1cccc(C(=O)N[C@H]2C[C@@H](n3cnc4c(Nc5ccc(N6CCN(CCC7CCN(c8ccc9nnn([C@H]%10CCC(=O)NC%10=O)c(=O)c9c8)CC7)CC6)cc5)ncnc43)C2)n1 [Compound 382, N-((1s,3s)-3-(6-((4-(4-(2-(1-(3-(2,6-dioxopiperidin-3-yl)-4-oxo-3,4-dihydrobenzo[d][1,2,3]triazin-6-yl)piperidin-4-yl)ethyl)piperazin-1-yl)phenyl)amino)-9H-purin-9-yl)cyclobutyl)-6-methylpicolinamide]"
40/40/40%,40/40/40%,40/40/40%,0/0/0%,0/0/0%,0/0/0%,"O=C1CC[C@H](N2C(=O)c3ccc(N4CC(C(=O)N5CCC6(CC5)CC(N5CCN(c7ccc(Nc8ncnc9c8ncn9C8CC(NC(=O)c9c(Cl)cccc9Cl)C8)cc7)CC5)C6)C4)cc3C2=O)C(=O)N1 (stereo partly drawn) [Compound 383, 2,6-dichloro-N-((1s,3s)-3-(6-((4-(4-(7-(1-(2-(2,6-dioxopiperidin-3-yl)-1,3-dioxoisoindolin-5-yl)azetidin-3-carbonyl)-7-azaspiro[3.5]nonan-2-yl)piperazin-1-yl)phenyl)amino)-9H-purin-9-yl)cyclobutyl)benzamide]"

# Source: patent publication US20260125382A1, “COMPOUNDS FOR INHIBITING OR DEGRADING CDK2 AND/OR CDK9 AND MEDICINAL USE THEREOF” (KOREA RESEARCH INSTITUTE OF CHEMICAL TECHNOLOGY, priority 2022, published 2026)
